Results from patent publication US7482362B2, “Substituted-4-quinolones” (priority 2000, dated 2009).

What was measured:
murine splenocytes = test: ConA mitogen-stimulated proliferation of murine splenocytes ([3H]-thymidine incorporation); assay type: cell-based, mouse (BALB/c); details: ConA 1 μg/ml, 100,000 spleen cells, compound about 10 to 0.2 μM; FIG. 1
Experimental: 1. ConA Mitogen-Stimulated Proliferation of Murine Splenocytes
The concanavalin A (ConA) cell proliferation assay was used to assess the effect of the title compound on T-cell activation and proliferation. Proliferation was assessed by the incorporation of [^3H]-thymidine into DNA. Eight-week-old female BALB/c mice were obtained from Harlan (Bicester, Oxon, UK) and given food and water ad libitum. Splenocyte suspensions were prepared by removing the spleens and placing them into RPMI 1640 medium. The spleens were forced through 70 μm pore size wire gauzes using the plunger from a 5 ml syringe to produce a single cell suspension. The cells were pelleted by centrifugation, and erythrocytes were lysed with 0.017M Tris, 0.144M ammonium chloride buffer, pH 7.2. Leucocytes were washed twice with RPMI 1640 medium with 2% (vol/vol) foetal calf serum (FCS) and resuspended in complete cell culture medium (CTCM) consisting of RPMI 1640 medium with 5% FCS, 2 mM L-glutamine, and 5×10−5 M 2-mercaptoethanol. The title compound was tested at doubling down dilutions ranging from about 10 to 0.2 μM in a final volume of 200 μl of CTCM, containing ConA (Sigma, Poole, UK) at 1 μg/ml and 100,000 spleen cells. […] After the addition of 25 μl of MicroScint-O (Packard) to each well the filters were counted with the Packard TopCount scintillation counter. […]

Mono Mac 6 cells = test: Mono Mac 6 cellular viability by MTS conversion to formazan; assay type: cell-based, human; details: Mono Mac 6, 100,000 cells per well, overnight exposure, 3.90625 to 500 μM; FIG. 2, 3
Experimental: The human monocytic cell line, Mono Mac 6, was treated with concentrations of bacterial quorum sensing molecules 2-heptyl-3-hydroxy-4(1H)quinolone (PQS), N-(3-oxododecanoyl)-L-homoserine lactone (OdDHL) and N-(3-oxohexanoyl)-L-homoserine lactone. Cells at 100,000 per well were exposed to quorum sensing molecules ranging from 3.90625 to 500 μM after which the cells were stimulated with 10 ng/ml E. coli LPS and 5 ng/ml phorbol-myristrate acetate to induce the overnight release of TNF-αinto the culture media. A tetrazolium compound (3-(4,5-dimethylthazol-2-yl)-5-(3-carboxymethoxyphenyl)-2-(4-sulfophenyl)-2H-tetrazolium, inner salt MTS was added to the cells to determine cellular viability after treatment with the quorum sensing molecules. MTS is bioreduced by cells into a formazan product that is soluble in tissue culture medium. The production of formazan was determined by measuring the absorbance of the compound at 450 nm. The results are shown in FIG. 2. A titration of cell numbers was included to correlate to the number of viability cells in the treated wells as set out in the table below.

TNF-α = test: In vitro LPS stimulation of human PBMC for the release of TNF-α, sandwich ELISA; assay type: cell-based; details: FIG. 4C
Experimental: Human PBMC, at 100,000 cell per well, were stimulated with 1×10^−5 μg/ml LPS E. coli strain 055:B5. Following culture for 24 hours the cell culture supernatants were collected and tested for TNF-α levels by ‘sandwich’ ELISA similarly described above for the IL-2 detection assay.

[1] = system: Human peripheral blood mononuclear cells (PBMC); test: In vitro proliferation assay of ConA-stimulated human PBMC (3H-thymidine); assay type: cell-based; details: ConA 1 μg/ml, 0.78125 to 100 μM; FIG. 4A
Experimental: (§1) Human peripheral blood mononuclear cells (PBMC) were isolated from heparinised whole blood by buoyant density centrifugation over Histopague 1077 (Sigma, Poole, UK) 600 g for 20 minutes. PBMC harvested from the ‘buffy’ layers were washed and then aliquoted into 96-well plates at 100,000 per well. PBMC were exposed to bacterial quorum sensing molecules (PQS or OdDHL) at concentrations ranging from 0.78125 to 100 μM and then stimulated with 1 μg/ml of Concanavalin A (ConA). After an overnight culture 50 μl of the culture supernatant was removed for the detection of IL-2 released by ‘sandwich’ ELISA. The cells were returned to culture for another 24 hours before 0.25 μCi per well of ^3H-thymidine was added. Following an 18-hour pulse the human PBMC were harvested onto fibreglass filters which were then counted in the presence of MicroScint-O with the Packard TopCount scintillation counter.

IL-2 = IL-2 release from ConA-stimulated human PBMC, sandwich ELISA; assay type: cell-based; details: ConA 1 μg/ml, culture supernatant, FIG. 4B
Experimental: as §1, with “The cells were returned to culture for another 24 hours before 0.25 μCi per well of ^3H-thymidine was added.” left out
Human leucocytes when stimulated with ConA released the cytokine IL-2. The levels of cytokine produced in the culture supernatants after 24 h were determined in a ‘sandwich’ ELISA. […] Following four washes, the bound biotinylated antibody was detected with 50 μl of a 1:1,000 dilution of Streptavidin-peroxidase (BD Pharmingen, UK). […] The enzyme reaction was stopped with 50 μl of 2.5 M H2SO4 after a development of 10 minutes at room temperature and the development was read at 450 nm with a spectrophotometric 96-well plate reader.

SMILES	splenocyte proliferation (counts per minute, [3H]-thymidine incorporation) (murine splenocytes)	cell viability, as adjudged by MTS conversion (Mono Mac 6 cells)	TNF-α production at high dose (TNF-α; LPS-stimulated, high dose)	TNF-α production at low dose (TNF-α; LPS-stimulated, low dose)	human PBMC cell proliferation [1]	IL-2 secretion (IL-2)	TNF-α production (TNF-α; LPS E. coli 055:B5, 24 hours)
CCCCCCCc1[nH]c2ccccc2c(=O)c1O [PQS, 2-heptyl-3-hydroxy-4(1H)quinolone]	inhibits	no effect	may enhance	no effect			
CCCCCCCCCC(=O)CC(=O)N[C@H]1CCOC1=O [OdDHL, N-(3-oxododecanoyl)-L-homoserine lactone]					inhibits	inhibits	inhibits
